Assay results from patent publication US8178699B2, “Modulators of CCR9 receptor and methods of use thereof” (Pfizer Inc., priority 2008, dated 2012).
Counter-ions that a name gives are not always drawn.

Target: T1, human CCR9 receptor (Homo sapiens, UniProt P51686)
T1 construct: expressed in transfected cells
T1 sequence (P51686 1-369): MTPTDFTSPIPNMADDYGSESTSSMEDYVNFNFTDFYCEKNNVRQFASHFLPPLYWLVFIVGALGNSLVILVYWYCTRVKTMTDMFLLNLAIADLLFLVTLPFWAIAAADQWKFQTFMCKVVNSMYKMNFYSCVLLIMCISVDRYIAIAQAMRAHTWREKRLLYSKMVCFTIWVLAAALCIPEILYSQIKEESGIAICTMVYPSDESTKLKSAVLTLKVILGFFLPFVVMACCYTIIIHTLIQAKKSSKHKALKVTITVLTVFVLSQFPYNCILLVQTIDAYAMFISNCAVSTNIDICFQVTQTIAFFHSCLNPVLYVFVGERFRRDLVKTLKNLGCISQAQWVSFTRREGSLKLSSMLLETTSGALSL
Experiment: CCR9 FLIPR/FlexStation Assay (inhibition of TECK induced calcium mobilization)
Format: cell-based
Conditions: CCR9 antagonist activity; TECK induced calcium mobilization in CCR9-Flp-CHO cells stably over expressing human CCR9; rhTECK at EC70; read-out: Binding IC50
Description: Exemplary methods are described in US Publication Nos. US2004/0180892 and US2005/0049286, which are incorporated herein by reference. An exemplary assay for determining CCR9 antagonist activity of the compounds provided herein is CCR9 FLIPR/FlexStation Assay. In certain embodiments, the following protocol is used for the assay:
CCR9 FLIPR/FlexStation Assay Protocol
Calcium assay in FLIPR/FlexStation determines inhibitors of TECK induced calcium mobilization in CCR9-Flp-CHO cells that stably over express human CCR9 receptor. CCR9-Flp-CHO cells are seeded at 25,000 cells/well in a clear bottom, black wall 96-well plate (Greiner #655090) one day prior to assay. Cells are grown in a tissue culture incubator at 37° C. with 5% CO2 for 18 to 24 hours.
Wash buffer and dye loading buffer are prepared fresh each time the assay is performed. Wash buffer is prepared according to the following protocol: 20 ml 10×HBSS (Invitrogen Gibco #14065-056), 4 ml 1M HEPES (Sigma H3784), 174 ml sterile deionized water; then add 140 mg probenecid (Sigma P8761) dissolved in 2 ml 1M NaOH (Fisher S318) to solution and pH to 7.4. This wash buffer contains 1×HBSS, 20 mM HEPES and 2.5 mM probenecid. For one 96-well plate, dye loading buffer is prepared as following: 11 ml wash buffer, 44 μl Fluo-4/pluoronic acid mix (prepared from 22 μL aliquot of 2 mM Fluo-4 (Molecular Probes F14202, 1 mg/tube)+22 μl 20% pluronic F-127 (Molecular Probes P3000MP).
Cells are loaded with dye according to the protocol below:
1. Prepare wash buffer with 1×HBSS/HEPES at room temperature
2. Prepare loading buffer (keep in dark)
3. Aspirate culture media and wash with 100 μl wash buffer per well×1
4. Add 100 μl dye loading buffer to each well
5. Incubate at 37° C. for 30 minutes
6. Aspirate loading buffer
7. Wash with 100 μl wash buffer per well×3
8. Add 100 μl wash buffer per well
9. Incubate at 37° C. for 30 minutes
10. Assay plate with FLIPR or FlexStation
10 mM stock compounds in DMSO are prepared and diluted in DMSO to 1 mM. Compounds are diluted in wash buffer to make 8 point series dilutions containing same final concentration of DMSO (1%). Compounds are tested in duplicate wells for each point. Ligand rhTECK (R&D Systems 334-TK) was diluted to 6× of its EC70 with wash buffer. Appropriate amount of 6× ligand is added to each well. Data is analyzed using XLfit3 software to calculate IC50 value of antagonist activity for each compound.
CCR9 antagonist activity of exemplary compounds was determined using CCR9 FLIPR/FlexStation Assay as described in Section 4.4 and is provided in Table 1 below. The IC50 for the compounds are represented as follows: A≦100 nM; B>100-500 nM; C>500 nM.

COc1cc(S(=O)(=O)Nc2ccsc2C(=O)O)c(Cl)cc1F [Example 63, 3-(2-chloro-4-fluoro-5-methoxyphenylsulfonamido)thiophene-2-carboxylic acid, disodium salt]
IC50: > 0.5 µM
